Article PMC7849013, “Structural Investigations of the Inhibition of Escherichia coli AmpC β-Lactamase by Diazabicyclooctanes” (Antimicrobial Agents and Chemotherapy, 2021)
≈ marks a conversion by molar mass, not a printed value. Where “and” joins values, the source holds several entries; their conditions need not be identical. Identical values can stand only once.

Legend:
[1] = test system: DH5α Escherichia coli (wt); assay: MIC by broth microdilution, wild-type strain; assay type: cell-based; conditions: compound alone, read-out: Minimum Inhibitory Concentration
Experimental: (§1) MICs were determined by broth microdilutions in triplicate and interpreted using published guidelines described by the CLSI. […] DBOs were also tested as the sole administered antimicrobial (0.25 to 256 μg ml^−1) against both strains (Table S5).

[2] = target: T1, AmpC SBL from Escherichia coli (AmpCEC) (Escherichia coli, UniProt P00811); assay: Steady-state competitive inhibition kinetics of AmpCEC with fluorescent substrate FC-5 (kobs, Kiapp, k2/K); assay type: biochemical
T1 construct: made in house
Experimental: (§2) Assays were performed and analyzed as described previously ([34]). In summary, assays in the presence of inhibitors were carried out under steady-state conditions monitoring hydrolysis of the fluorescent substrate FC-5 ([33]) in 100 mM phosphate buffer, pH 7.5, supplemented with 0.01% (vol/vol) Triton X-100. Fluorescence was measured using a PHERAstar (BMG Labtech) plate reader, recording emission spectra at an excitation wavelength of 380 nm and emission wavelength of 460 nm. […] The pseudo first-order rate constant, kobs, and the apparent inhibition constant, Kiapp, were obtained by assaying 100 nM AmpCEC with 5 μM FC-5 in the presence of various concentrations of the inhibitor. Reactions were initiated by addition of AmpCEC and immediately monitored continuously over 30 s. […] The second-order rate constant (k2/K) was obtained from linear regression of measured kobs values against inhibitor concentrations (see Fig. S3b in the supplemental material) and corrected by the Michaelis constant (Km) and concentration of the substrate. Kiapps ([50]) were determined by linear regression of the reciprocals of the initial rates against inhibitor concentration (Fig. S3a) and corrected using the experimentally determined substrate Km and substrate concentration. Inhibitor off rates (koff) were measured using the jump-dilution method ([51]); thus, AmpCEC (1 μM) was incubated with the respective inhibitor (10 μM) for 30 min at room temperature and diluted 100,000-fold in the assay buffer to a final enzyme concentration of 10 pM and then immediately assayed using 25 μM (final concentration) FC-5. Off rates were determined from exponential regression in relation to turnover of no enzyme and no inhibitor controls (Fig. S3c). Half-lives of the enzyme-inhibitor complexes were directly calculated from the measured koff values.
Figure S1: Progression curves used in kobs determinations. AmpCEC (100 nM) was assayed using FC-5 (5 μM)
Reactions were initiated by addition of
AmpCEC and immediately monitored, as described in Materials and Methods. Buffer: 50 mM phosphate buffer, pH
7.5 and 0.01% (v/v) Triton X-100. Curves were fitted to Equation 5.
(A) Determination of Kiapp values
for AmpCEC inhibition by DBOs. […]

ADC-7 = target: ADC-7; set-up: method as in earlier work; conditions: ref [2], cited from earlier work; for Ki: read-out: Kiapp
E. coli ATCC 25922 = test system: E. coli ATCC 25922; set-up: method as in PMID 30861342; conditions: E. coli ATCC 25922, compound alone; cited from earlier work
[3] = test system: DH5α E. coli containing the pAD7-AmpCEC plasmid; assay: MIC by broth microdilution, AmpCEC-producing strain; assay type: cell-based, Escherichia coli; conditions: for MIC: Escherichia coli, read-out: Minimum Inhibitory Concentration, compound alone, DH5α pAD7 AmpCEC
Experimental: as §1

PDC-1 = test system: PDC-1; set-up: method as in earlier work; conditions: ref [2]; cited from earlier work
PDC-3 = test system: PDC-3; set-up: method as in earlier work; conditions: ref [2]; cited from earlier work
[4] = target: T1, AmpC SBL from Escherichia coli (AmpCEC); assay: AmpCEC inhibition pIC50 with varied preincubation time and pH (FC-5); assay type: biochemical
[5] = target: T1, AmpC SBL from Escherichia coli (AmpCEC); assay: Jump-dilution off-rate of AmpCEC-DBO carbamoyl complexes (FC-5); assay type: biochemical; conditions: jump dilution 100,000-fold; 1 μM AmpCEC preincubated with 10 μM DBO 30 min at room temperature; 25 μM FC-5
Experimental: as §2, with “Inhibitor off rates (koff) were measured using the jump-dilution method ([51]); thus, AmpCEC (1 μM) was incubated with the respective inhibitor (10 μM) for 30 min at room temperature and diluted 100,000-fold in the assay buffer to a final enzyme concentration of 10 pM and then immediately assayed using 25 μM (final concentration) FC-5.” left out, “Half-lives of the enzyme-inhibitor complexes were directly calculated from the measured koff values.” left out

[6] = target: T1, AmpC SBL from Escherichia coli (AmpCEC); assay: AmpCEC inhibition pIC50 with varied preincubation time and pH (FC-5); assay type: biochemical; remark: listed apart in the source
Experimental: as §2
pre-incubated with the inhibitors for the indicated times at room temperature and assayed using 5 μM FC-5 [1].
(1 picture or pasted object on this page, not shown here)
AmpCEC (500 pM) was preincubated
with the inhibitors for the indicated times at room temperature, then assayed using 5 μM FC-5 [1]. Buffer: 50 mM
regression (Figure S2), as described in the Materials and Methods.

[7] = [DBO] 5.00 µM, 100 nM AmpCEC, 5 μM FC-5
[8] = pIC50, 0 min preincubation, pH 7.0
[9] = pIC50, 0 min preincubation, pH 8.0
[10] = pIC50, 10 min preincubation, pH 7.0
[11] = pIC50, 10 min preincubation, pH 8.0
[12] = pIC50, 30 min preincubation, pH 7.0
[13] = pIC50, 60 min preincubation, pH 7.0
[14] = pIC50, 60 min preincubation, pH 8.0
[15] = pIC50, 360 min preincubation, pH 7.0
[16] = pIC50, 360 min preincubation, pH 8.0
[17] = pIC50, 0 min preincubation, pH 7.5, 500 pM AmpCEC, 5 μM FC-5
[18] = pIC50, 10 min preincubation, pH 7.5
[19] = pIC50, 30 min preincubation, pH 7.5
[20] = pIC50, 60 min preincubation, pH 7.5
[21] = pIC50, 360 min preincubation, pH 7.5, 500 pM AmpCEC, 5 μM FC-5

T1 sequence (P00811 20-377): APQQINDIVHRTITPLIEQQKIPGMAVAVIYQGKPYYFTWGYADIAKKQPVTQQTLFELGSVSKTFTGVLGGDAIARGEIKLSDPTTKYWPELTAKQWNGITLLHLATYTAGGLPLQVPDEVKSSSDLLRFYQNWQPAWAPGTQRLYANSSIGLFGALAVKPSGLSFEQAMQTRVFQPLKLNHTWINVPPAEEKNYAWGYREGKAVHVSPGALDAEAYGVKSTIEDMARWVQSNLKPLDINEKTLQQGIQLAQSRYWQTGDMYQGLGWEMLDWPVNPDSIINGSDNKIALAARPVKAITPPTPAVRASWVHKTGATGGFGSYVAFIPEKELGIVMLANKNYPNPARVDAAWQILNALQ

Row | Compound | MIC [1] [µg/mL] | kobs ([2]; [DBO] 0.04 µM) | kobs ([2]; [DBO] 0.16 µM) | kobs ([2]; [DBO] 0.31 µM) | kobs ([2]; [DBO] 0.63 µM) | kobs ([2]; [DBO] 1.25 µM) | kobs [2, 7] | k2/K (ADC-7) | t1/2 (ADC-7) [min] | MIC (E. coli ATCC 25922) [µg/mL] | MIC [3] [µg/mL] | k2/K (PDC-3) | t1/2 (PDC-3) [min] | Ki [2] [nM] | IC50 [4, 8] [nM] | IC50 [4, 9] [nM] | IC50 [4, 10] [nM] | IC50 [4, 11] [nM] | IC50 [4, 12] [nM] | IC50 [4, 13] [nM] | further results
1 | NC(=O)[C@@H]1CC[C@@H]2CN1C(=O)N2OS(=O)(=O)O [AVI, avibactam] | 16 (≈ 60.3 µM) | 0.135 ± 0.002 | 0.134 ± 0.001 | 0.135 ± 0.006 | 0.144 ± 0.002 | 0.168 ± 0.008 | 0.305 ± 0.004 | 3.9 ± 0.4 (M-1s-1) x 10 3 | 33 ± 5 | 16 (≈ 60.3 µM) | 16 (≈ 60.3 µM) | 29 (M-1s-1) x 10 3 | 14 | – | – | – | – | – | – | – | Ki (ADC-7): 19000 ± 2000 nM; k2/K (PDC-1): 2900 (M-1s-1) x 10 3; t1/2 (PDC-1): 6 min
2 | CC(C)(O/N=C(\C(=O)N[C@@H]1C(=O)N2C(C(=O)[O-])=C(C[n+]3ccccc3)CS[C@H]12)c1csc(N)n1)C(=O)O [CAZ, ceftazidime] | 1 (≈ 1.83 µM) | – | – | – | – | – | – | – | – | – | 256 (≈ 468 µM) | – | – | – | – | – | – | – | – | – | –
3 | NCCONC(=O)[C@@H]1CC[C@@H]2CN1C(=O)N2OS(=O)(=O)O [NAC, nacubactam] | 2 (≈ 6.17 µM) | 0.142 ± 0.003 | 0.142 ± 0.003 | 0.153 ± 0.005 | 0.153 ± 0.002 | 0.185 ± 0.003 | 0.393 ± 0.008 | – | – | 2 (≈ 6.17 µM) | 4 (≈ 12.3 µM) | – | – | 5000 ± 100 | 200 | 141 | 91.2 | 58.9 | 31.6 | 16.2 | kinact/KI ([2]; pH 7.5, read-out: k2/K (carbamoylation rate)): 52000 ± 2000 M⁻¹ s⁻¹; IC50 [4, 14]: 15.1 nM; IC50 [4, 15]: 6.46 nM; IC50 [4, 16]: 5.13 nM; koff (decarbamoylation rate) [5]: 0.049 s^−1, ×10^−3 and 0.049 ± 0.01 s^−1, ×10^−3; Minimum Inhibitory Concentration ([3]; compound alone, DH5α pAD7 AmpCEC): 2 µg/mL; IC50 [6, 17]: 178 nM; IC50 [6, 18]: 66.1 nM; IC50 [6, 19]: 34.7 nM; IC50 [6, 20]: 13.8 nM; IC50 [6, 21]: 2.95 nM
4 | O=C(NC1CCNCC1)[C@@H]1CC[C@@H]2CN1C(=O)N2OS(=O)(=O)O [REL, relebactam] | 128 (≈ 367 µM) | 0.134 ± 0.007 | 0.138 ± 0.003 | 0.136 ± 0.002 | 0.143 ± 0.002 | 0.167 ± 0.005 | 0.314 ± 0.012 | 7.8 ± 0.8 (M-1s-1) x 10 3 | 39 ± 4 | > 64 | 128 (≈ 367 µM) | 46 ± 5 (M-1s-1) x 10 3 | 13 ± 4 | 7100 ± 300 | 166 | 158 | 115 | 63.1 | 49 | 17.4 | IC50 [4, 14]: 13.2 nM; IC50 [4, 15]: 4.17 nM; IC50 [4, 16]: 10.5 nM; IC50 [6, 17]: 245 nM; IC50 [6, 18]: 107 nM; IC50 [6, 19]: 34.7 nM; IC50 [6, 20]: 20.4 nM; IC50 [6, 21]: 3.89 nM
5 | O=C(NNC(=O)[C@@H]1CC[C@@H]2CN1C(=O)N2OS(=O)(=O)O)[C@@H]1CCCNC1 [ZID, zidebactam] | ≤ 0.25 | 0.150 ± 0.002 | 0.183 ± 0.002 | 0.246 ± 0.002 | 0.357 ± 0.003 | – | – | 35 ± 4 (M-1s-1) x 10 3 | 11 ± 1 | 0.125 (≈ 0.319 µM) | ≤ 0.25 | 480 ± 70 (M-1s-1) x 10 3 | 3 ± 0.4 | 690 ± 40 | 34.7 | 17 | 16.6 | 8.13 | 8.71 | 5.75 | IC50 [4, 14]: 3.89 nM; IC50 [4, 15]: 5.25 nM; IC50 [4, 16]: 4.37 nM; Ki (ADC-7): 2300 ± 300 nM; IC50 [6, 17]: 25.1 nM; IC50 [6, 18]: 11 nM; IC50 [6, 19]: 7.59 nM; IC50 [6, 20]: 4.68 nM; IC50 [6, 21]: 3.47 nM
